Source: PubChem BioAssay (NCI)
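Assay format: 96-well plates, 48-hour exposure. TGI marks complete inhibition of growth.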

Tests used:
Experiment in all cases: growth of human tumour cells (NCI), 48 h
RXF 393 renal = system: RXF 393 renal
M14 melanoma = system: M14 melanoma
HOP-62 NSCLC = system: HOP-62 NSCLC
LXFL 529 NSCLC = system: LXFL 529 NSCLC
SK-MEL-5 melanoma = system: SK-MEL-5 melanoma
NCI-H226 lung = system: NCI-H226 lung
HL-60(TB) leukemia = system: HL-60(TB) leukemia
SW-620 colon = system: SW-620 colon
SNB-78 CNS = system: SNB-78 CNS
NCI-H23 lung = system: NCI-H23 lung
OVCAR-3 ovarian = system: OVCAR-3 ovarian
UACC-257 melanoma = system: UACC-257 melanoma
MALME-3M melanoma = system: MALME-3M melanoma
CCRF-CEM leukemia = system: CCRF-CEM leukemia
SK-OV-3 ovarian = system: SK-OV-3 ovarian
ACHN renal = system: ACHN renal
OVCAR-8 ovarian = system: OVCAR-8 ovarian
SF-539 CNS = system: SF-539 CNS
OVCAR-5 ovarian = system: OVCAR-5 ovarian
M19-MEL melanoma = system: M19-MEL melanoma
KM12 colon = system: KM12 colon
CAKI-1 renal = system: CAKI-1 renal
NCI-H460 lung = system: NCI-H460 lung
HCT-116 colon = system: HCT-116 colon
SNB-75 CNS = system: SNB-75 CNS
XF 498 CNS = system: XF 498 CNS
U251 CNS = system: U251 CNS
SNB-19 CNS = system: SNB-19 CNS
SF-295 CNS = system: SF-295 CNS
IGROV1 ovarian = system: IGROV1 ovarian
A549 NSCLC = system: A549 NSCLC
A498 renal = system: A498 renal
EKVX NSCLC = system: EKVX NSCLC
SN12C renal = system: SN12C renal
786-0 renal = system: 786-0 renal
K-562 leukemia = system: K-562 leukemia
SK-MEL-2 melanoma = system: SK-MEL-2 melanoma
MOLT-4 leukemia = system: MOLT-4 leukemia
DLD-1 colon = system: DLD-1 colon
HT29 colon = system: HT29 colon
HOP-92 NSCLC = system: HOP-92 NSCLC
OVCAR-4 ovarian = system: OVCAR-4 ovarian
UACC-62 melanoma = system: UACC-62 melanoma
SF-268 CNS = system: SF-268 CNS
SK-MEL-28 melanoma = system: SK-MEL-28 melanoma
DMS 273 small cell lung = system: DMS 273 small cell lung
UO-31 renal = system: UO-31 renal
TK-10 renal = system: TK-10 renal
NCI-H522 lung = system: NCI-H522 lung
HCT-15 colon = system: HCT-15 colon
RPMI-8226 leukemia = system: RPMI-8226 leukemia
KM20L2 colon = system: KM20L2 colon
LOX IMVI melanoma = system: LOX IMVI melanoma
RXF-631 renal = system: RXF-631 renal
COLO 205 colon = system: COLO 205 colon
HOP-18 NSCLC = system: HOP-18 NSCLC
DMS 114 small cell lung = system: DMS 114 small cell lung
HCC-2998 colon = system: HCC-2998 colon

For `O=C1CCCC1NC(=O)C(F)(F)F` (stereo not given), the TGI (RXF 393 renal) was > 100 µM, the TGI (M14 melanoma) was > 100 µM and the TGI (HOP-62 NSCLC) was > 100 µM. The TGI (LXFL 529 NSCLC) was > 100 µM, the TGI (SK-MEL-5 melanoma) was > 100 µM and the TGI (NCI-H226 lung) was > 100 µM. For the same molecule, the TGI (HL-60(TB) leukemia) was > 100 µM, the TGI (SW-620 colon) was > 100 µM and the TGI (SNB-78 CNS) was > 100 µM. For the same molecule, the TGI (NCI-H23 lung) was > 100 µM, the TGI (OVCAR-3 ovarian) was > 100 µM and the TGI (UACC-257 melanoma) was > 100 µM. The TGI (MALME-3M melanoma) was > 100 µM, the TGI (CCRF-CEM leukemia) was > 100 µM and the TGI (SK-OV-3 ovarian) was > 100 µM. The TGI (ACHN renal) was > 100 µM, the TGI (OVCAR-8 ovarian) was > 100 µM and the TGI (SF-539 CNS) was > 100 µM. For the same molecule, the TGI (OVCAR-5 ovarian) was > 100 µM, the TGI (M19-MEL melanoma) was > 100 µM and the TGI (KM12 colon) was > 100 µM. For the same molecule, the TGI (CAKI-1 renal) was > 100 µM, the TGI (NCI-H460 lung) was > 100 µM and the TGI (HCT-116 colon) was > 100 µM. For the same molecule, the TGI (SNB-75 CNS) was > 100 µM, the TGI (XF 498 CNS) was > 100 µM and the TGI (U251 CNS) was > 100 µM. The TGI (SNB-19 CNS) was > 100 µM, the TGI (SF-295 CNS) was > 100 µM and the TGI (IGROV1 ovarian) was > 100 µM. For the same molecule, the TGI (A549 NSCLC) was > 100 µM, the TGI (A498 renal) was > 100 µM and the TGI (EKVX NSCLC) was > 100 µM. For the same molecule, the TGI (SN12C renal) was > 100 µM, the TGI (786-0 renal) was > 100 µM and the TGI (K-562 leukemia) was > 100 µM. For the same molecule, the TGI (SK-MEL-2 melanoma) was > 100 µM, the TGI (MOLT-4 leukemia) was > 100 µM and the TGI (DLD-1 colon) was > 100 µM. The TGI (HT29 colon) was > 100 µM, the TGI (HOP-92 NSCLC) was > 100 µM and the TGI (OVCAR-4 ovarian) was > 100 µM. For the same molecule, the TGI (UACC-62 melanoma) was > 100 µM, the TGI (SF-268 CNS) was > 100 µM and the TGI (SK-MEL-28 melanoma) was > 100 µM. The TGI (DMS 273 small cell lung) was > 100 µM, the TGI (UO-31 renal) was > 100 µM and the TGI (TK-10 renal) was > 100 µM. The TGI (NCI-H522 lung) was > 100 µM.

`C=C(C)[C@H](O)C(O)CC(C)[C@@H]1CCC23CC12CCC1[C@@]2(C)CCC(OC(C)=O)C(C)(C)C2CC(OC2OC(COC(C)=O)C(O)C(O)C2O)[C@]13C` (stereo not given in full) was tested, and the TGI (RXF 393 renal) was 8.49 µM, the TGI (M14 melanoma) was 9.11 µM and the TGI (HOP-62 NSCLC) was 13.2 µM. For the same molecule, the TGI (LXFL 529 NSCLC) was 10.9 µM, the TGI (HCT-15 colon) was 10.4 µM and the TGI (NCI-H226 lung) was 11.2 µM. It also gave a TGI (HL-60(TB) leukemia) of 5.08 µM, a TGI (RPMI-8226 leukemia) of 6.29 µM and a TGI (SW-620 colon) of 12 µM. For the same molecule, the TGI (SNB-78 CNS) was 14.2 µM, the TGI (NCI-H23 lung) was 14 µM and the TGI (KM20L2 colon) was 9.84 µM. The TGI (LOX IMVI melanoma) was 10.7 µM, the TGI (RXF-631 renal) was 12 µM and the TGI (OVCAR-3 ovarian) was 11.6 µM. The TGI (UACC-257 melanoma) was 12 µM, the TGI (MALME-3M melanoma) was 14.7 µM and the TGI (CCRF-CEM leukemia) was 9.7 µM. The TGI (SK-OV-3 ovarian) was 14.3 µM, the TGI (ACHN renal) was 12.6 µM and the TGI (OVCAR-8 ovarian) was 12.8 µM. The TGI (SF-539 CNS) was 12.8 µM, the TGI (OVCAR-5 ovarian) was 13.9 µM and the TGI (M19-MEL melanoma) was 10.7 µM. The TGI (KM12 colon) was 11.3 µM, the TGI (CAKI-1 renal) was 12.1 µM and the TGI (NCI-H460 lung) was 11.5 µM. It also gave a TGI (HCT-116 colon) of 9.27 µM, a TGI (SNB-75 CNS) of 9.03 µM and a TGI (COLO 205 colon) of 12.6 µM. It also gave a TGI (U251 CNS) of 10.1 µM, a TGI (SNB-19 CNS) of 11.6 µM and a TGI (SF-295 CNS) of 12.5 µM. The TGI (IGROV1 ovarian) was 9.54 µM, the TGI (A549 NSCLC) was 12.2 µM and the TGI (A498 renal) was 14.7 µM. For the same molecule, the TGI (EKVX NSCLC) was 12.7 µM, the TGI (SN12C renal) was 13 µM and the TGI (786-0 renal) was 13.7 µM. For the same molecule, the TGI (K-562 leukemia) was 10.8 µM, the TGI (SK-MEL-2 melanoma) was 16.2 µM and the TGI (MOLT-4 leukemia) was 8.94 µM. The TGI (DLD-1 colon) was 11.2 µM, the TGI (HOP-18 NSCLC) was 15.2 µM and the TGI (HT29 colon) was 8.77 µM. It also gave a TGI (HOP-92 NSCLC) of 11 µM, a TGI (DMS 114 small cell lung) of 10.7 µM and a TGI (OVCAR-4 ovarian) of 14 µM. It also gave a TGI (UACC-62 melanoma) of 9.4 µM, a TGI (SF-268 CNS) of 11 µM and a TGI (SK-MEL-28 melanoma) of 13.3 µM. The TGI (DMS 273 small cell lung) was 11.4 µM, the TGI (HCC-2998 colon) was 12.4 µM and the TGI (UO-31 renal) was 14.5 µM. It also gave a TGI (TK-10 renal) of 12.5 µM and a TGI (NCI-H522 lung) of 9.91 µM.
